From BindingDB's records for doi:10.1021/acs.jmedchem.8b01436 (University of New South Wales, 2019)
Peptide text beside a SMILES is read from it.

Assay: Inhibition of (2S,8S,11S,14S)-2-(4-aminobutyl)-14-(3-guanidinopropyl)-8-(4-hydroxybenzyl)-11-(hydroxymethyl)-4,7,10,13,16,32-hexaoxo-36-((3aS,4S,6aR)-2-oxohexahydro-1H-thieno[3,4-d]imidazol-4-yl)-19,22,25,28-tetraoxa-3,6,9,12,15,31-hexaazahexatriacontan-1-oic acid binding to human Hsp72 SBD expressed in Escherichia coli BL21 (DE3) by Western

Question: With `N=C(N)NCCC[C@H](NC(=O)[C@H](CO)NC(=O)[C@H](Cc1ccc(O)cc1)NC(=O)CNC(=O)[C@@H](N)CCCCN)C(=O)O` (H-KGYSR-OH) as the compound, how does the IC50 read?
Answer: The IC50 was 87.3 µM.

Question: Which IC50 does the source give for `N=C(N)NCCC[C@H](NC(=O)[C@H](CO)NC(=O)[C@H](Cc1ccc(O)cc1)NC(=O)CNC(=O)[C@@H](N)CCCCN)C(=O)N[C@@H](CCCCN)C(=O)O` (H-KGYSRK-OH) here?
Answer: The IC50 was 248 µM.

Question: Which IC50 does the source give for `C[C@H](NC(=O)[C@H](CCCCN)NC(=O)[C@H](CCCNC(=N)N)NC(=O)[C@H](CO)NC(=O)[C@H](Cc1ccc(O)cc1)NC(=O)CNC(=O)[C@@H](N)CCCCN)C(=O)O` (H-KGYSRKA-OH) here?
Answer: The IC50 was 70 µM.

Question: With `C[C@H](NC(=O)[C@H](C)NC(=O)[C@H](CCCCN)NC(=O)[C@H](CCCNC(=N)N)NC(=O)[C@H](CO)NC(=O)[C@H](Cc1ccc(O)cc1)NC(=O)CNC(=O)[C@@H](N)CCCCN)C(=O)O` (H-KGYSRKAA-OH) as the compound, how does the IC50 read?
Answer: Its IC50 is 6.43 µM.
